Experimental data: US20160122406A1, “ANALOGS OF PITUITARY ADENYLATE CYCLASE-ACTIVATING POLYPEPTIDE (PACAP) AND METHODS FOR THEIR USE” (THE ADMINISTRATORS OF THE TULANE EDUCATIONAL FUND, priority 2013, published 2016)
Entries after “also recorded” stand apart in the source; their conditions may differ. Square brackets hold non-standard residues; d marks the D form. * marks the point of attachment. Iac = imidazole-4-acrylic acid, O=C(/C=C/c1c[nH]cn1)*; Acetyl(2-(4-imidazolyl)) = O=C(Cc1c[nH]cn1)*

System: Male Sprague-Dawley rats
Assay: Arterial blood pressure and heart rate after intravenous injection in anesthetized rats
Type: in vivo
Settings: 10 micrograms i.v.; for change in arterial blood pressure / change in arterial pulse pressure: isoflurane-anesthetized rats; for heart rate before intravenous injection: the 'from' value; for heart rate after intravenous injection: the 'to' value
Source text: FIG. 9 is a graph showing the changes in arterial blood pressure caused by [Iaa^1]PACAP38, [Iaa^1,D-Ser^2]PACAP38, [Iaa^1,Ala^22]PACAP38, and [Iaa^1,D-Ser^2,Ala^22]PACAP38. Male Sprague-Dawley rats (300-325 g) were anesthetized with 5% isoflurane for induction and then intubated. The rats were then ventilated (Hallowell EMC) with 100% O2 and 1-2% isoflurane. A PE-50 cannula was then placed in the femoral artery and connected to a pressure transducer. The arterial pressure signal was sent to an electronic chart recorder (BioPac). Heart rate was electronically derived from the arterial pressure signal. A similar PE-50 cannula was also placed in the femoral vein to allow for intravenous injection of the test peptides. Ten micrograms of the test peptides were injected intravenously in 100 μl of 0.9% NaCl in a random order and the cannula was immediately flushed with 100 μl of 0.9% NaCl. Changes in blood pressure and heart rate were calculated from the electronic record. […] Intravenous injection of [Iaa1]PACAP38 or [Iaa1,Ala22]PACAP38 also produced an increase in the heart rate from 378 bpm to 425 bpm or from 415 bpm to 440 bpm, respectively.
FIG. 10 is a graph showing the changes in arterial blood pressure caused by [Iac^1]PACAP38, [Iac^1,Ala^22]PACAP38, [Iac^1,D-Ser^2,Ala^22]PACAP38, and [Iaa^1,Ala^16,17,D-Lys^38]PACAP38. Male Sprague-Dawley rats (300-325 g) were anesthetized with 5% isoflurane for induction and then intubated. The rats were then ventilated (Hallowell EMC) with 100% O2 and 1-2% isoflurane. A PE-50 cannula was then placed in the femoral artery and connected to a pressure transducer. The arterial pressure signal was sent to an electronic chart recorder (BioPac). Heart rate was electronically derived from the arterial pressure signal. A similar PE-50 cannula was also placed in the femoral vein to allow for intravenous injection of the test peptides. Ten micrograms of the test peptides were injected intravenously in 100 μl of 0.9% NaCl in a random order and the cannula was immediately flushed with 100 μl of 0.9% NaCl. Changes in blood pressure and heart rate were calculated from the electronic record. Intravenous injection of [Iac^1,Ala^22]PACAP38 or [Iac^1,D-Ser^2,Ala^22]PACAP38 produced an increase in the heart rate from 416 bpm to 435 bpm or from 420 bpm to 441 bpm, respectively.
PACAP38 is a directly-acting arterial vasodilator and an indirectly-acting arterial vasoconstrictor. The rapid vasodilator response to intravenous administration of PACAP38 is due to stimulation of PAC1, VPAC1 and VPAC2 receptors in the blood vessels, while the slightly delayed vasoconstrictor response is mainly due to stimulation of PAC1 receptors in the adrenal medulla and the subsequent release of adrenal catecholamines. […] The critical parameter for picking a PACAP38 analog for treating a specific disease is not potency but therapeutic index.

Substance	change in arterial blood pressure	heart rate before intravenous injection [bpm]	heart rate after intravenous injection [bpm]	change in the heart rate (in words)	change in arterial pulse pressure	change in arterial blood pressure (D-Lys38]PACAP38)	change in arterial pulse pressure (D-Lys38]PACAP38)	duration of the arterial blood pressure response (compared with [Iaa1]PACAP38)	pattern of the arterial blood pressure response (compared with other peptides)
Iaa Ser Asp Gly Ile Phe Thr Asp Ser Tyr Ser Arg Tyr Arg Lys Gln Met Ala Val Lys Lys Ala Leu Ala Ala Val Leu Gly Lys Arg Tyr Lys Gln Arg Val Lys Asn Lys-NH2 ({Acetyl(2-(4-imidazolyl))}-SDGIFTDSYSRYRKQMAVKKALAAVLGKRYKQRVKNK-NH2; SMILES CC[C@H](C)[C@H](NC(=O)CNC(=O)[C@H](CC(=O)O)NC(=O)[C@H](CO)NC(=O)Cc1c[nH]cn1)C(=O)N[C@@H](Cc1ccccc1)C(=O)N[C@H](C(=O)N[C@@H](CC(=O)O)C(=O)N[C@@H](CO)C(=O)N[C@@H](Cc1ccc(O)cc1)C(=O)N[C@@H](CO)C(=O)N[C@@H](CCCNC(=N)N)C(=O)N[C@@H](Cc1ccc(O)cc1)C(=O)N[C@@H](CCCNC(=N)N)C(=O)N[C@@H](CCCCN)C(=O)N[C@@H](CCC(N)=O)C(=O)N[C@@H](CCSC)C(=O)N[C@@H](C)C(=O)N[C@H](C(=O)N[C@@H](CCCCN)C(=O)N[C@@H](CCCCN)C(=O)N[C@@H](C)C(=O)N[C@@H](CC(C)C)C(=O)N[C@@H](C)C(=O)N[C@@H](C)C(=O)N[C@H](C(=O)N[C@@H](CC(C)C)C(=O)NCC(=O)N[C@@H](CCCCN)C(=O)N[C@@H](CCCNC(=N)N)C(=O)N[C@@H](Cc1ccc(O)cc1)C(=O)N[C@@H](CCCCN)C(=O)N[C@@H](CCC(N)=O)C(=O)N[C@@H](CCCNC(=N)N)C(=O)N[C@H](C(=O)N[C@@H](CCCCN)C(=O)N[C@@H](CC(N)=O)C(=O)N[C@@H](CCCCN)C(N)=O)C(C)C)C(C)C)C(C)C)[C@@H](C)O) [[Iaa^1,Ala^22]PACAP38]	large decrease	415	440	–	–	–	–	–	–
Iac D-Ser Asp Gly Ile Phe Thr Asp Ser Tyr Ser Arg Tyr Arg Lys Gln Met Ala Val Lys Lys Ala Leu Ala Ala Val Leu Gly Lys Arg Tyr Lys Gln Arg Val Lys Asn Lys-NH2 (Iac-[dS]DGIFTDSYSRYRKQMAVKKALAAVLGKRYKQRVKNK-NH2) [[Iac^1,D-Ser^2,Ala^22]PACAP38]	–	420	441	–	–	–	–	–	–
Iaa Ser Asp Gly Ile Phe Thr Asp Ser Tyr Ser Arg Tyr Arg Lys Ala Ala Ala Val Lys Lys Tyr Leu Ala Ala Val Leu Gly Lys Arg Tyr Lys Gln Arg Val Lys Asn D-Lys-NH2 ({Acetyl(2-(4-imidazolyl))}-SDGIFTDSYSRYRKAAAVKKYLAAVLGKRYKQRVKN[dK]-NH2; SMILES CC[C@H](C)[C@H](NC(=O)CNC(=O)[C@H](CC(=O)O)NC(=O)[C@H](CO)NC(=O)Cc1c[nH]cn1)C(=O)N[C@@H](Cc1ccccc1)C(=O)N[C@H](C(=O)N[C@@H](CC(=O)O)C(=O)N[C@@H](CO)C(=O)N[C@@H](Cc1ccc(O)cc1)C(=O)N[C@@H](CO)C(=O)N[C@@H](CCCNC(=N)N)C(=O)N[C@@H](Cc1ccc(O)cc1)C(=O)N[C@@H](CCCNC(=N)N)C(=O)N[C@@H](CCCCN)C(=O)N[C@@H](C)C(=O)N[C@@H](C)C(=O)N[C@@H](C)C(=O)N[C@H](C(=O)N[C@@H](CCCCN)C(=O)N[C@@H](CCCCN)C(=O)N[C@@H](Cc1ccc(O)cc1)C(=O)N[C@@H](CC(C)C)C(=O)N[C@@H](C)C(=O)N[C@@H](C)C(=O)N[C@H](C(=O)N[C@@H](CC(C)C)C(=O)NCC(=O)N[C@@H](CCCCN)C(=O)N[C@@H](CCCNC(=N)N)C(=O)N[C@@H](Cc1ccc(O)cc1)C(=O)N[C@@H](CCCCN)C(=O)N[C@@H](CCC(N)=O)C(=O)N[C@@H](CCCNC(=N)N)C(=O)N[C@H](C(=O)N[C@@H](CCCCN)C(=O)N[C@@H](CC(N)=O)C(=O)N[C@H](CCCCN)C(N)=O)C(C)C)C(C)C)C(C)C)[C@@H](C)O) [[Iaa^1,Ala^16,17,D-Lys^38]PACAP38]	large and prolonged decrease	–	–	large decrease	large and prolonged decrease	large decrease	large decrease	much longer	–
Iaa D-Ser Asp Gly Ile Phe Thr Asp Ser Tyr Ser Arg Tyr Arg Lys Gln Met Ala Val Lys Lys Ala Leu Ala Ala Val Leu Gly Lys Arg Tyr Lys Gln Arg Val Lys Asn Lys-NH2 ({Acetyl(2-(4-imidazolyl))}-[dS]DGIFTDSYSRYRKQMAVKKALAAVLGKRYKQRVKNK-NH2; SMILES CC[C@H](C)[C@H](NC(=O)CNC(=O)[C@H](CC(=O)O)NC(=O)[C@@H](CO)NC(=O)Cc1c[nH]cn1)C(=O)N[C@@H](Cc1ccccc1)C(=O)N[C@H](C(=O)N[C@@H](CC(=O)O)C(=O)N[C@@H](CO)C(=O)N[C@@H](Cc1ccc(O)cc1)C(=O)N[C@@H](CO)C(=O)N[C@@H](CCCNC(=N)N)C(=O)N[C@@H](Cc1ccc(O)cc1)C(=O)N[C@@H](CCCNC(=N)N)C(=O)N[C@@H](CCCCN)C(=O)N[C@@H](CCC(N)=O)C(=O)N[C@@H](CCSC)C(=O)N[C@@H](C)C(=O)N[C@H](C(=O)N[C@@H](CCCCN)C(=O)N[C@@H](CCCCN)C(=O)N[C@@H](C)C(=O)N[C@@H](CC(C)C)C(=O)N[C@@H](C)C(=O)N[C@@H](C)C(=O)N[C@H](C(=O)N[C@@H](CC(C)C)C(=O)NCC(=O)N[C@@H](CCCCN)C(=O)N[C@@H](CCCNC(=N)N)C(=O)N[C@@H](Cc1ccc(O)cc1)C(=O)N[C@@H](CCCCN)C(=O)N[C@@H](CCC(N)=O)C(=O)N[C@@H](CCCNC(=N)N)C(=O)N[C@H](C(=O)N[C@@H](CCCCN)C(=O)N[C@@H](CC(N)=O)C(=O)N[C@@H](CCCCN)C(N)=O)C(C)C)C(C)C)C(C)C)[C@@H](C)O) [[Iaa^1,D-Ser^2,Ala^22]PACAP38]	slight increase; also recorded: slightly increased	410	457	–	–	–	–	–	expected physiological signature of a highly selective PAC1 receptor agonist
Iac Ser Asp Gly Ile Phe Thr Asp Ser Tyr Ser Arg Tyr Arg Lys Gln Met Ala Val Lys Lys Ala Leu Ala Ala Val Leu Gly Lys Arg Tyr Lys Gln Arg Val Lys Asn Lys-NH2 (Iac-SDGIFTDSYSRYRKQMAVKKALAAVLGKRYKQRVKNK-NH2) [[Iac^1,Ala^22]PACAP38]	–	416	435	–	–	–	–	–	–
